Data taken from ChEMBL document CHEMBL3046732, “Synthesis and biological evaluation of new [1,3,4]thiadiazepino[7,6-b]quinolin-2-amines as potent anti-microbial agents” (2013).

What was measured:
Bacillus subtilis = assay: Antimicrobial activity against Bacillus subtilis assessed as growth inhibition by microdilution method
Streptococcus pyogenes = assay: Antimicrobial activity against Streptococcus pyogenes assessed as growth inhibition by microdilution method
Staphylococcus aureus = assay: Antimicrobial activity against Staphylococcus aureus assessed as growth inhibition by microdilution method
Salmonella typhimurium = assay: Antimicrobial activity against Salmonella enterica subsp. enterica serovar Typhimurium assessed as growth inhibition by microdilution method
Curvularia australiensis = assay: Antimicrobial activity against Curvularia australiensis assessed as growth inhibition by microdilution method; format: functional
Escherichia coli = assay: Antimicrobial activity against Escherichia coli assessed as growth inhibition by microdilution method
Klebsiella aerogenes = assay: Antimicrobial activity against Enterobacter aerogenes assessed as growth inhibition by microdilution method
Aspergillus flavus = assay: Antimicrobial activity against Aspergillus flavus assessed as growth inhibition by microdilution method; format: functional
Alternaria alternata = assay: Antimicrobial activity against Alternaria alternata assessed as growth inhibition by microdilution method; format: functional
Aspergillus niger = assay: Antimicrobial activity against Aspergillus niger assessed as growth inhibition by microdilution method; format: functional
Trichoderma reesei = assay: Antimicrobial activity against Trichoderma reesei assessed as growth inhibition by microdilution method; format: functional

Compound	MIC (Bacillus subtilis) [µg/mL]	MIC (Streptococcus pyogenes) [µg/mL]	MIC (Staphylococcus aureus) [µg/mL]	MIC (Salmonella typhimurium) [µg/mL]	MIC (Curvularia australiensis) [µg/mL]	MIC (Escherichia coli) [µg/mL]	MIC (Klebsiella aerogenes) [µg/mL]	MIC (Aspergillus flavus) [µg/mL]	MIC (Alternaria alternata) [µg/mL]	MIC (Aspergillus niger) [µg/mL]	MIC (Trichoderma reesei) [µg/mL]
Cc1ccc2nc3c(cc2c1)C=NN=C(Nc1ccccc1)S3	1000	500	1000	500	> 1000	> 1000	500	500	1000	1000	500
Cc1ccc2nc3c(cc2c1)C=NN=C(Nc1ccccc1F)S3	1000	1000	500	1000	> 1000	1000	60	> 1000	1000	> 1000	1000
Cc1ccc2nc3c(cc2c1)C=NN=C(Nc1cccc(F)c1)S3	> 1000	> 1000	> 1000	> 1000	> 1000	> 1000	> 1000	1000	500	1000	1000
Cc1ccc2nc3c(cc2c1)C=NN=C(Nc1ccc(F)cc1)S3	250	500	250	250	> 1000	500	125	> 1000	1000	1000	1000
